Experiments:
human TLR7 = human TLR7 (Homo sapiens (Human), UniProt Q9NYK1); test: HEK293-Blue-hTLR-7 cells assay; type: cell-based; conditions: HEK293-Blue-hTLR7 cells, R848 stimulation, 20 hrs, SEAP reporter; read-out: HEK/hTLR7 IC50
Description: (§1) A stable HEK293-Blue-hTLR-7 cell line was purchased from InvivoGen (Cat. #: hkb-htlr7, San Diego, Calif., USA). These cells were originally designed for studying the stimulation of human TLR7 by monitoring the activation of NF-κB. A SEAP (secreted embryonic alkaline phosphatase) reporter gene was placed under the control of the IFN-β minimal promoter fused to five NF-κB and AP-1-binding sites. The SEAP was induced by activating NF-κB and AP-1 via stimulating HEK-Blue hTLR7 cells with TLR7 ligands. Therefore the reporter expression was declined by TLR7 antagonist under the stimulation of a ligand, such as R848 (Resiquimod), for incubation of 20 hrs. The cell culture supernatant SEAP reporter activity was determined using QUANTI-Blue™ kit (Cat. #: rep-qb1, Invivogen, San Diego, Ca, USA) at a wavelength of 640 nm, a detection medium that turns purple or blue in the presence of alkaline phosphatase.
(§2) HEK293-Blue-hTLR7 cells were incubated at a density of 250,000˜450,000 cells/mL in a volume of 170 μL in a 96-well plate in Dulbecco's Modified Eagle's medium (DMEM) containing 4.5 g/L glucose, 50 U/mL penicillin, […], […], 2 mM L-glutamine, 10% (v/v) heat-inactivated fetal bovine serum with addition of 20 μL test compound in a serial dilution in the presence of final DMSO at 1% and 10 μL of 20 uM R848 in above DMEM, perform incubation under 37° C. in a CO2 incubator for 20 hrs. Then 20 μL of the supernatant from each well was incubated with 180 μL Quanti-blue substrate solution at 37° C. for 2 hrs and the absorbance was read at 620-655 nm using a spectrophotometer. The signaling pathway that TLR7 activation leads to downstream NF-κB activation has been widely accepted, and therefore similar reporter assay was modified for evaluating TLR7 antagonist.

human TLR8 = human TLR8 (Homo sapiens (Human), UniProt Q9NR97); test: HEK293-Blue-hTLR-8 cells assay; type: cell-based; conditions: HEK293-Blue-hTLR8 cells, R848 stimulation, 20 hrs, SEAP reporter; read-out: HEK/hTLR8 IC50
Description: as §1, with “HEK293-Blue-hTLR-8” for “HEK293-Blue-hTLR-7”, “hkb-htlr8,” for “hkb-htlr7,”, “TLR8” for “TLR7”, “hTLR8” for “hTLR7”, “R848,” for “R848 (Resiquimod),”, “rep-gb1,” for “rep-qb1,”
as §2, with “HEK293-Blue-hTLR8 cells were” for “HEK293-Blue-hTLR7 cells were”, “μL of 60 uM R848” for “μL of 20 uM R848”, “read at 620655 nm using” for “read at 620-655 nm using”, “pathway that TLR8 activation leads” for “pathway that TLR7 activation leads”, “for evaluating TLR8 antagonist.” for “for evaluating TLR7 antagonist.”

[1] = Human microsome stability assay; type: in vitro ADME; conditions: human liver microsomes, 1 μM test compound, 37° C., NADPH regenerating system
Experimental: The human microsomal stability assay is used for early assessment of metabolic stability of a test compound in human liver microsomes.
Human liver microsomes (Cat. NO.: 452117, Corning, USA; Cat. NO.: H2610, Xenotech, USA) were preincubated with test compound for 10 minutes at 37° C. in 100 mM potassium phosphate buffer, pH 7.4. The reactions were initiated by adding NADPH regenerating system. The final incubation mixtures contained 1 μM test compound, 0.5 mg/mL liver microsomal protein, 1 mM MgCl2, 1 mM NADP, 1 unit/mL isocitric dehydrogenase and 6 mM isocitric acid in 100 mM potassium phosphate buffer, pH 7.4. After incubation times of 0, 3, 6, 9, 15 and 30 minutes at 37° C., 300 μL of cold acetonitrile (including internal standard) was added to 100 μL incubation mixture to terminate the reaction. Following precipitation and centrifugation, the amount of compound remaining in the samples were determined by LC-MS/MS. Controls of no NADPH regenerating system at zero and 30 minutes were also prepared and analyzed.

human TLR7, sequence (Q9NYK1 27-1049): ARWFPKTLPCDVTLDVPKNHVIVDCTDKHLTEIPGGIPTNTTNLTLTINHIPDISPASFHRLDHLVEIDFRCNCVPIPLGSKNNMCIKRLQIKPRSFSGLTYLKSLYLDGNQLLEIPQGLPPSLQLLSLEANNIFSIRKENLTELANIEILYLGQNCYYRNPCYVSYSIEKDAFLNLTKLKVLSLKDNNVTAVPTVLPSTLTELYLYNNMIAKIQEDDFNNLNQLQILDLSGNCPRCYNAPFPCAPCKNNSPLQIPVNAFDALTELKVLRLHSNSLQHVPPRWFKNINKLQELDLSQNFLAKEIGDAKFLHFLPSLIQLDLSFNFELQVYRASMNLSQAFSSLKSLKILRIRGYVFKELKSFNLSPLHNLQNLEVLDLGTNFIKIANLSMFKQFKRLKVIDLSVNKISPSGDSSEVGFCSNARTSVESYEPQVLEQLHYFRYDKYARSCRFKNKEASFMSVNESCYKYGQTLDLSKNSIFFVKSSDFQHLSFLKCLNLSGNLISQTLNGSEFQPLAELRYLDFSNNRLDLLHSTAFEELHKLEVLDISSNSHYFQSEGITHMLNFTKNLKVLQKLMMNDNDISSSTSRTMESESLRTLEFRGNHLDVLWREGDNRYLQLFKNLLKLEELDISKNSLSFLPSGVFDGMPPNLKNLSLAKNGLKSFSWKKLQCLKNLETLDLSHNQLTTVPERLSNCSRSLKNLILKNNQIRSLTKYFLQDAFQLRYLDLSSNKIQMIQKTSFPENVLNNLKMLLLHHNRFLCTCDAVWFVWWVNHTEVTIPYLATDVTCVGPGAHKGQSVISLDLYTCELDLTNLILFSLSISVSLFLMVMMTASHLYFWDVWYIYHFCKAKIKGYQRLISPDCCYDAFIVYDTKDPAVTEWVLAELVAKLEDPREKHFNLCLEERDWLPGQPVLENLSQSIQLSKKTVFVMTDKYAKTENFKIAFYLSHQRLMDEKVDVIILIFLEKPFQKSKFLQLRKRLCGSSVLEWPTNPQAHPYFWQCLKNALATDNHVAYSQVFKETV
human TLR8, sequence (Q9NR97 27-1041): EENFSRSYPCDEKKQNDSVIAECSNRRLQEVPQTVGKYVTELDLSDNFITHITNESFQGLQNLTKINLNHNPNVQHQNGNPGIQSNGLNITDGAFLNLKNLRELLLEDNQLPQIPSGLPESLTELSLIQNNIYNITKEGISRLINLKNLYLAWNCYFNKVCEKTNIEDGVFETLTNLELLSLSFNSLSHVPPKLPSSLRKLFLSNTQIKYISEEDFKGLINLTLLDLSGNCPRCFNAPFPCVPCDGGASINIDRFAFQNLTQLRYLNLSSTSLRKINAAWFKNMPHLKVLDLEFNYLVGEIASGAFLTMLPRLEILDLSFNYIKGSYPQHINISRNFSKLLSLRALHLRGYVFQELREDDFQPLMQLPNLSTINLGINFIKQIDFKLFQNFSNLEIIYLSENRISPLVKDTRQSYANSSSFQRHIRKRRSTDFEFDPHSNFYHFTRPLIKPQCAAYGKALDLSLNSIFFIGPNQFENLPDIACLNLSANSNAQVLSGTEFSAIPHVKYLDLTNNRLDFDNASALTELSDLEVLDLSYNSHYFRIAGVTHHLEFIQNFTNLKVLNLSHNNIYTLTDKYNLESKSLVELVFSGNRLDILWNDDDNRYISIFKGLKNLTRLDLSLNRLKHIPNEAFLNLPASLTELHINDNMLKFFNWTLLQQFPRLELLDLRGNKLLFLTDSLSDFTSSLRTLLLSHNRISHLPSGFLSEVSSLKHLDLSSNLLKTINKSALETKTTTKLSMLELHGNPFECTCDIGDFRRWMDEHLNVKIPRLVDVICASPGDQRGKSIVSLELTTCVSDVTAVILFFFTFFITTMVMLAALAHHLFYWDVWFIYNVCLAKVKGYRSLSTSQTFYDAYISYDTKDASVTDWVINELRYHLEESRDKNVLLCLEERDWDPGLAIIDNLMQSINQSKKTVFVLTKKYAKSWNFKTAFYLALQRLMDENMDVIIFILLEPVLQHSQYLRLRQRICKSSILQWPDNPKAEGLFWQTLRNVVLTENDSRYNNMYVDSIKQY

Row | IC50 (human TLR7) [nM] | IC50 (human TLR8) [nM] | Clearance of Human microsome [1] [L/h/kg] | SMILES
1 | 1.6 | 1.3 | – | Cc1cc(-c2ccc(N3CCC(N4CCNCC4)CC3)nc2C(C)C)cn2ccnc12 [Example 2, 6-[2-isopropyl-6-(4-piperazin-1-yl-1-piperidyl)-3-pyridyl]-8-methyl-imidazo[1,2-a]pyridine]
2 | 5.8 | 1.2 | 0.369 | Cc1cn2cc(-c3ccc(N4CCC(N5CCNCC5)CC4)nc3C(C)C)cc(C)c2n1 [Example 3, 6-[2-isopropyl-6-(4-piperazin-1-yl-1-piperidyl)-3-pyridyl]-2,8-dimethyl-imidazo[1,2-a]pyridine]
3 | 8.9 | 2.9 | 0.495 | Cc1cn2cc(-c3ccc(N4CCC(N)CC4)nc3C(C)C)cc(C)c2n1 [Example 4, 1-[5-(2,8-dimethylimidazo[1,2-a]pyridin-6-yl)-6-isopropyl-2-pyridyl]piperidin-4-amine]
4 | 21.4 | 30.4 | – | Cc1cn2cc(-c3ccc(N4CCNC[C@H]4CO)nc3C(C)C)cc(C)c2n1 [Example 5, [(2S)-1-[5-(2,8-dimethylimidazo[1,2-a]pyridin-6-yl)-6-isopropyl-2-pyridyl]piperazin-2-yl]methanol]
5 | 22.7 | 8.6 | – | Cc1c(-c2ccc(N3CCC(N4CCNCC4)CC3)nc2C(C)C)cn2ccnc2c1C [Example 7, 6-[2-isopropyl-6-(4-piperazin-1-yl-1-piperidyl)-3-pyridyl]-7,8-dimethyl-imidazo[1,2-a]pyridine]
6 | 6.7 | 2.3 | – | Cc1cn2cc(-c3ccc(N4CCN5CCNCC5C4)nc3C(C)C)cc(C)c2n1 (centres unmarked) [Example 8, 2-[5-(2,8-dimethylimidazo[1,2-a]pyridin-6-yl)-6-isopropyl-2-pyridyl]-1,3,4,6,7,8,9,9a-octahydropyrazino[1,2-a]pyrazine]
7 | 13.2 | 10.7 | 0.432 | Cc1cc(-c2cc(C)c3nccn3c2)cnc1N1CCC(N2CCN(C)CC2)CC1 [Example 9, 8-methyl-6-[5-methyl-6-[4-(4-methylpiperazin-1-yl)-1-piperidyl]-3-pyridyl]imidazo[1,2-a]pyridine]
8 | 1.9 | 2.8 | 0.549 | Cc1cc(-c2ccc(N3CCC(N4CCNCC4)CC3)nc2C(F)F)cn2ccnc12 [Example 10, 6-[2-(difluoromethyl)-6-(4-piperazin-1-yl-1-piperidyl)-3-pyridyl]-8-methyl-imidazo[1,2-a]pyridine]
9 | 16.3 | 16.8 | 0.421 | Cc1cn2cc(-c3ccc(N4CCC(N5CCNCC5)CC4)nc3C(F)F)cc(C)c2n1 [Example 11, 6-[2-(difluoromethyl)-6-(4-piperazin-1-yl-1-piperidyl)-3-pyridyl]-2,8-dimethyl-imidazo[1,2-a]pyridine]
10 | 16.3 | 1.1 | 0.369 | Cc1cn2cc(-c3ccc(N4CCC(N5CC(C)(N)C5)CC4)nc3C(F)F)cc(C)c2n1 [Example 12, 1-[1-[6-(difluoromethyl)-5-(2,8-dimethylimidazo[1,2-a]pyridin-6-yl)-2-pyridyl]-4-piperidyl]-3-methyl-azetidin-3-amine]
11 | 3.9 | 0.4 | 0.567 | CCc1nc(N2CCC(N3CC4(CNCCO4)C3)CC2)ccc1-c1cc(C)c2nccn2c1 [Example 14, 2-[1-[6-ethyl-5-(8-methylimidazo[1,2-a]pyridin-6-yl)-2-pyridyl]-4-piperidyl]-5-oxa-2,8-diazaspiro[3.5]nonane]
12 | 2.7 | 0.3 | 0.369 | CCc1nc(N2CCC(N3C[C@@H](N)[C@H](OC)C3)CC2)ccc1-c1cc(C)c2nccn2c1 [Example 15, (3R,4R)-1-[1-[6-ethyl-5-(8-methylimidazo[1,2-a]pyridin-6-yl)-2-pyridyl]-4-piperidyl]-4-methoxy-pyrrolidin-3-amine]
13 | 17.3 | 1 | – | CCc1nc(N2CCC(N3C[C@@H](N)[C@H](OC)C3)CC2)ccc1-c1cc(C)c2nc(C)cn2c1 [Example 17, (3R,4R)-1-[1-[5-(2,8-dimethylimidazo[1,2-a]pyridin-6-yl)-6-ethyl-2-pyridyl]-4-piperidyl]-4-methoxy-pyrrolidin-3-amine]
14 | 35.8 | 41.8 | – | CCc1nc(N2CCC(C)(N)CC2)ccc1-c1cc(C)c2nc(C)cn2c1 [Example 20, 1-[5-(2,8-dimethylimidazo[1,2-a]pyridin-6-yl)-6-ethyl-2-pyridyl]-4-methyl-piperidin-4-amine]
15 | 5.9 | 3.6 | – | CCc1nc(N2CCC(N3CCNCC3)CC2)ccc1-c1cc(C)c2nc(C)cn2c1 [Example 21, 6-[2-ethyl-6-(4-piperazin-1-yl-1-piperidyl)-3-pyridyl]-2,8-dimethyl-imidazo[1,2-a]pyridine]
16 | 3.3 | 40 | 0.369 | CCc1cc(-c2cc(C)c3nccn3c2)cnc1N1CCC2(CCNCC2)CC1 [Example 22, 3-[3-ethyl-5-(8-methylimidazo[1,2-a]pyridin-6-yl)-2-pyridyl]-3,9-diazaspiro[5.5]undecane]
17 | 6.9 | 11.2 | 0.369 | COc1nc(N2CCC(N3CCNCC3)CC2)ccc1-c1cc(C)c2nccn2c1 [Example 25, 6-[2-methoxy-6-(4-piperazin-1-yl-1-piperidyl)-3-pyridyl]-8-methyl-imidazo[1,2-a]pyridine]

Reference: US20230279001A1, “IMIDAZO[1,2-A]PYRIDINE COMPOUNDS FOR THE TREATMENT OF AUTOIMMUNE DISEASE” (Hoffmann-La Roche Inc., priority 2020, published 2023)
